Experimental data published in patent US9302999B2, “Substituted triazoles as herbicides” (E. I. DU PONT DE NEMOURS AND COMPANY, priority 2012, dated 2016).

Assays:
Type in all cases: in vivo
[1] = system: sedge, umbrella (small-flower umbrella sedge Cyperus difformis); assay: Test B flooded paddy: sedge, umbrella; details: Flood; 250 g ai/ha; applied to paddy water at 2-leaf stage; visually evaluated after 13 to 15 days
Outline: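 Greenhouse assay lasting 13 to 15 days. Treatment was into water flooding pots 3 cm deep, at the 2-leaf stage, with that level sustained afterwards. Scores compare treated with control plants visually, 100 denoting complete control and 0 no effect; a dash marks no test result.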

[2] = system: goosegrass (Eleusine indica); assay: Test C pre-/postemergence: goosegrass
Outline: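 Visual injury scored 0–100 (100 = complete control) against untreated controls after 13–15 greenhouse days. Surfactant-containing solvent formulations applied either to soil after sowing (loam/sand) or over 1- to 4-leaf plants, 2–18 cm tall.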

[3] = system: bluegrass (annual bluegrass, Poa annua); assay: Test D pre-/postemergence: bluegrass
Outline: (§1)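 Scores run from 0 (no effect) to 100 (complete control), assigned by visual comparison with controls after 14 to 21 days in a controlled environment. Both preemergence application to silt loam and postemergence application to 1- to 4-leaf plants were tested.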

[4] = system: canarygrass (Phalaris minor); assay: Test D pre-/postemergence: canarygrass
Outline: as §1

[5] = system: deadnettle (henbit deadnettle, Lamium amplexicaule); assay: Test D pre-/postemergence: deadnettle
Outline: as §1

[6] = system: wheat, spring (spring wheat, Triticum aestivum); assay: Test D pre-/postemergence: wheat, spring
Outline: as §1

[7] = Postemergence, 31 g ai/ha, scale 0 to 100 (0 no effect, 100 complete control)
[8] = Postemergence, 62 g ai/ha, scale 0 to 100 (0 no effect, 100 complete control)
[9] = Postemergence, 125 g ai/ha, scale 0 to 100, 0 no effect, 100 complete control
[10] = Preemergence, 31 g ai/ha, scale of 0 to 100, 0 is no effect, 100 is complete control
[11] = Preemergence, 62 g ai/ha, scale of 0 to 100, 0 is no effect, 100 is complete control
[12] = Preemergence, 125 g ai/ha, scale 0 to 100, 0 no effect, 100 complete control
[13] = Preemergence, 250 g ai/ha, scale 0 to 100, 0 no effect, 100 complete control
[14] = Postemergence, 8 g ai/ha, scale 0 to 100
[15] = Postemergence, 16 g ai/ha, scale 0 to 100
[16] = Preemergence, 16 g ai/ha, scale 0 to 100 (0 no effect, 100 complete control)
[17] = Preemergence, 31 g ai/ha, scale 0 to 100 (0 no effect, 100 complete control)
[18] = Preemergence, 62 g ai/ha, scale 0 to 100
[19] = Preemergence, 125 g ai/ha, scale 0 to 100
[20] = Postemergence, 250 g ai/ha, scale 0 to 100 (0 no effect, 100 complete control)
[21] = Preemergence, 250 g ai/ha, scale 0 to 100

In the case of `Cc1nn(-c2ccc(F)c(F)c2)nc1Oc1ccnc(C(F)(F)F)c1` [Compound 145], the “Plant response rating, Sedge, Umbrella (0 to 100 scale, 0 is no effect, 100 is complete control)” value [1] is reported as 85, the “Plant response rating, Goosegrass” value [2, 7] is reported as 25 and the “Plant response rating, Goosegrass” value [2, 8] is reported as 35. The “Plant response rating, Goosegrass” value [2, 9] was 70, the “Plant response rating, Goosegrass” value ([2]; Postemergence, 250 g ai/ha, scale 0 to 100) was 80 and the “Plant response rating, Goosegrass” value [2, 10] was 98. For the same compound, the “Plant response rating, Goosegrass” value [2, 11] was 100, the “Plant response rating, Goosegrass” value [2, 12] was 100 and the “Plant response rating, Goosegrass” value [2, 13] was 100. For the same compound, the “Plant response rating: Bluegrass” value [3, 7] was 20, the “Plant response rating: Bluegrass” value [3, 8] was 25 and the “Plant response rating: Bluegrass” value [3, 9] was 40. For the same compound, the “Plant response rating, Bluegrass” value [3, 14] was 0, the “Plant response rating, Bluegrass” value [3, 15] was 0 and the “Plant response rating: Canarygrass” value [4, 7] was 35. For the same compound, the “Plant response rating: Canarygrass” value [4, 8] was 35, the “Plant response rating: Canarygrass” value [4, 9] was 60 and the “Plant response rating, Canarygrass” value [4, 14] was 20. The “Plant response rating, Canarygrass” value [4, 15] was 30, the “Plant response rating: Deadnettle” value [5, 7] was 70 and the “Plant response rating: Deadnettle” value [5, 8] was 90. The “Plant response rating: Deadnettle” value [5, 9] was 100, the “Plant response rating, Deadnettle” value [5, 14] was 0 and the “Plant response rating, Deadnettle” value [5, 15] was 50. For the same compound, the “Plant response rating: Wheat, Spring” value [6, 7] was 10, the “Plant response rating: Wheat, Spring” value [6, 8] was 20 and the “Plant response rating: Wheat, Spring” value [6, 9] was 25. The “Plant response rating, Wheat, Spring” value [6, 14] was 5 and the “Plant response rating, Wheat, Spring” value [6, 15] was 5.

In the case of `Cc1nn(-c2ccc(F)c(C(F)(F)F)c2)nc1Oc1ccnc(C(F)(F)F)c1` [Compound 147], the “Plant response rating, Sedge, Umbrella (0 to 100 scale, 0 is no effect, 100 is complete control)” value [1] is reported as 80, the “Plant response rating, Goosegrass” value [2, 10] is reported as 98 and the “Plant response rating, Goosegrass” value [2, 11] is reported as 100. For the same compound, the “Plant response rating, Goosegrass” value [2, 12] was 100, the “Plant response rating, Goosegrass” value [2, 13] was 100 and the “Plant response rating: Bluegrass” value [3, 7] was 10. For the same compound, the “Plant response rating: Bluegrass” value [3, 8] was 55, the “Plant response rating: Bluegrass” value [3, 9] was 70 and the “Plant response rating, Bluegrass” value [3, 15] was 5. For the same compound, the “Plant response rating, Bluegrass” value [3, 16] was 0, the “Plant response rating, Bluegrass” value [3, 17] was 15 and the “Plant response rating, Bluegrass” value [3, 18] was 20. The “Plant response rating, Bluegrass” value [3, 19] was 35, the “Plant response rating: Canarygrass” value [4, 7] was 35 and the “Plant response rating: Canarygrass” value [4, 8] was 55. The “Plant response rating: Canarygrass” value [4, 9] was 80, the “Plant response rating, Canarygrass” value [4, 15] was 15 and the “Plant response rating, Canarygrass” value [4, 16] was 5. For the same compound, the “Plant response rating, Canarygrass” value [4, 17] was 35, the “Plant response rating, Canarygrass” value [4, 18] was 100 and the “Plant response rating, Canarygrass” value [4, 19] was 100. For the same compound, the “Plant response rating: Deadnettle” value [5, 7] was 95, the “Plant response rating: Deadnettle” value [5, 8] was 90 and the “Plant response rating: Deadnettle” value [5, 9] was 100. For the same compound, the “Plant response rating, Deadnettle” value [5, 15] was 65, the “Plant response rating, Deadnettle” value [5, 16] was 5 and the “Plant response rating, Deadnettle” value [5, 17] was 10. For the same compound, the “Plant response rating, Deadnettle” value [5, 18] was 100, the “Plant response rating, Deadnettle” value [5, 19] was 100 and the “Plant response rating: Wheat, Spring” value [6, 7] was 15. The “Plant response rating: Wheat, Spring” value [6, 8] was 20, the “Plant response rating: Wheat, Spring” value [6, 9] was 25 and the “Plant response rating, Wheat, Spring” value [6, 15] was 10. For the same compound, the “Plant response rating, Wheat, Spring” value [6, 16] was 0, the “Plant response rating, Wheat, Spring” value [6, 17] was 0 and the “Plant response rating, Wheat, Spring” value [6, 18] was 0. For the same compound, the “Plant response rating, Wheat, Spring” value [6, 19] was 5.

With `CCOc1nn(-c2ccc(F)cc2)nc1Cc1ccnc(C(F)F)c1` [Compound 195] the “Plant response rating, Sedge, Umbrella (0 to 100 scale, 0 is no effect, 100 is complete control)” value [1] was 100, the “Plant response rating, Goosegrass” value [2, 7] was 50 and the “Plant response rating, Goosegrass” value [2, 8] was 50. The “Plant response rating, Goosegrass” value [2, 9] was 60, the “Plant response rating, Goosegrass” value [2, 20] was 80 and the “Plant response rating, Goosegrass” value ([2]; Preemergence, 31 g ai/ha, scale 0 (no effect) to 100 (complete control)) was 98. For the same compound, the “Plant response rating, Goosegrass” value [2, 11] was 100, the “Plant response rating, Goosegrass” value [2, 12] was 100 and the “Plant response rating, Goosegrass” value [2, 13] was 100. For the same compound, the “Plant response rating: Bluegrass” value [3, 7] was 20, the “Plant response rating: Bluegrass” value [3, 8] was 40 and the “Plant response rating: Bluegrass” value [3, 9] was 60. For the same compound, the “Plant response rating: Bluegrass” value [3, 20] was 80, the “Plant response rating, Bluegrass” value [3, 15] was 10 and the “Plant response rating, Bluegrass” value [3, 16] was 0. For the same compound, the “Plant response rating, Bluegrass” value [3, 17] was 10, the “Plant response rating, Bluegrass” value [3, 18] was 20 and the “Plant response rating, Bluegrass” value [3, 19] was 50. The “Plant response rating, Bluegrass” value [3, 21] was 80, the “Plant response rating: Canarygrass” value [4, 7] was 10 and the “Plant response rating: Canarygrass” value [4, 8] was 20. The “Plant response rating: Canarygrass” value [4, 9] was 40, the “Plant response rating: Canarygrass” value [4, 20] was 55 and the “Plant response rating, Canarygrass” value [4, 15] was 10. For the same compound, the “Plant response rating, Canarygrass” value [4, 16] was 0, the “Plant response rating, Canarygrass” value [4, 17] was 25 and the “Plant response rating, Canarygrass” value [4, 18] was 40. For the same compound, the “Plant response rating, Canarygrass” value [4, 19] was 80, the “Plant response rating, Canarygrass” value [4, 21] was 95 and the “Plant response rating: Deadnettle” value [5, 7] was 65. The “Plant response rating: Deadnettle” value [5, 8] was 75, the “Plant response rating: Deadnettle” value [5, 9] was 75 and the “Plant response rating: Deadnettle” value [5, 20] was 90. For the same compound, the “Plant response rating, Deadnettle” value [5, 15] was 60, the “Plant response rating, Deadnettle” value [5, 16] was 60 and the “Plant response rating, Deadnettle” value [5, 17] was 60. The “Plant response rating, Deadnettle” value [5, 18] was 60, the “Plant response rating, Deadnettle” value [5, 19] was 100 and the “Plant response rating, Deadnettle” value [5, 21] was 100. For the same compound, the “Plant response rating: Wheat, Spring” value [6, 7] was 10, the “Plant response rating: Wheat, Spring” value [6, 8] was 20 and the “Plant response rating: Wheat, Spring” value [6, 9] was 25. The “Plant response rating: Wheat, Spring” value [6, 20] was 35, the “Plant response rating, Wheat, Spring” value [6, 15] was 5 and the “Plant response rating, Wheat, Spring” value [6, 16] was 0. For the same compound, the “Plant response rating, Wheat, Spring” value [6, 17] was 0, the “Plant response rating, Wheat, Spring” value [6, 18] was 0 and the “Plant response rating, Wheat, Spring” value [6, 19] was 0. For the same compound, the “Plant response rating, Wheat, Spring” value [6, 21] was 0.
